Values belong to the molecule of their own block, whether it stands above or below them. Where no end group is shown, it is not given here.
Key:
Giα1 = target: T1, Giα1 (Homo sapiens, UniProt P63096); experiment: GTPγS binding assay, Giα1; assay type: biochemical
T1 construct: made in house; host or cells: Sf9 insect cells
Protocol: (§1) A and B, the carboxyl region of AGS3 (Pro^463-Ser^650) containing all four GPR repeats was generated as a His-tagged (A) or GST fusion (B) protein for protein interaction assays as described under Examples. All interactions were done in the presence of 10 μM GDP, and the input lanes represent one-tenth of the G-protein used in each interaction assay. A, Giα1 (75 nM) was incubated with 300 nM His-tagged AGS3-GPR in the absence and presence of increasing amounts of the GPR peptide, after which bound Giα was isolated on a nickel affinity matrix, and samples were processed for immunoblotting with Giα antisera. The blot in the upper panel of A was stripped and reprobed with AGS3 antisera to provide internal controls for protein loading. B, Giα2 (75 nM) was incubated with 300 nM AGS3-GPR or GST in the presence and absence of 100 μM GPR consensus peptide, GPR peptide Q15A, or GPR peptide R23F. […] C and D, GTPγ^35S binding to G-proteins (100 nM) was measured in the absence and presence of peptides as described in the Examples. Data are expressed as the percent of specific binding (˜5 pmol) observed in the absence of peptide and represent the means±S.E. derived from three experiments. […]
GTPγS Binding Assays—GTPγS binding assays were generally conducted as described (39). […] Radioactivity bound to the filters was determined by liquid scintillation counting. […]

Giα2 = target: T2, Giα2 (Homo sapiens, UniProt P04899); experiment: GTPγS binding assay, Giα2; assay type: biochemical; conditions: G-protein 100 nM, 30 min, 24° C.; read-out: IC50 for inhibition of GTPγS binding to Giα2
T2 construct: made in house; host or cells: Sf9 insect cells
Protocol: A and B, the carboxyl region of AGS3 (Pro^463-Ser^650) containing all four GPR repeats was generated as a His-tagged (A) or GST fusion (B) protein for protein interaction assays as described under Examples. All interactions were done in the presence of 10 μM GDP, and the input lanes represent one-tenth of the G-protein used in each interaction assay. A, Giα1 (75 nM) was incubated with 300 nM His-tagged AGS3-GPR in the absence and presence of increasing amounts of the GPR peptide, after which bound Giα was isolated on a nickel affinity matrix, and samples were processed for immunoblotting with Giα antisera. The blot in the upper panel of A was stripped and reprobed with AGS3 antisera to provide internal controls for protein loading. B, Giα2 (75 nM) was incubated with 300 nM AGS3-GPR or GST in the presence and absence of 100 μM GPR consensus peptide, GPR peptide Q15A, or GPR peptide R23F. The immunoblots presented in A and B are representative of three experiments. C and D, GTPγ^35S binding to G-proteins (100 nM) was measured in the absence and presence of peptides as described in the Examples. Data are expressed as the percent of specific binding (˜5 pmol) observed in the absence of peptide and represent the means±S.E. derived from three experiments. The concentration of peptides in D is 10 μM.
GTPγS Binding Assays—GTPγS binding assays were generally conducted as described (39). G-proteins (100 nM) were preincubated for 20 min at 24° C. in the presence and absence of GPR peptides. Binding assays (duplicate determinations) were initiated by addition of 0.5 μM GTPγS (4.0×10^4 dpm/pmol), and incubations (total volume=50 μl) were continued for 30 min at 24° C. Both preincubations and GTPγS binding assays were conducted in binding buffer containing 2 mM MgCl2. Reactions were terminated by rapid filtration through nitrocellulose filters with 4×4-ml washes of stop buffer (50 mM Tris-HCl, 5 mM MgCl2, 1 mM EDTA, pH 7.4, at 4° C.). Radioactivity bound to the filters was determined by liquid scintillation counting. Nonspecific binding was defined by 100 μM […].

[1] = target: T3, Giα1 binding to GST-AGS3-GPR (Homo sapiens, UniProt P63096); experiment: Protein interaction assay: Giα1 binding to AGS3-GPR with GPR peptide; conditions: 10 μM GDP; Giα1 75 nM, AGS3-GPR 300 nM; read-out: IC50 for blocking the binding of Giα1 to GST-AGS3-GPR
T3 construct: made in house; host or cells: Sf9 insect cells (Giα1); bacteria (His-AGS3-GPR)
Protocol: as §1, with “antisera.” for “antisera. The blot in the upper panel of A was stripped and reprobed with AGS3 antisera to provide internal controls for protein loading. B, Giα2 (75 nM) was incubated with 300 nM AGS3-GPR or GST in the presence and absence of 100 μM GPR consensus peptide, GPR peptide Q15A, or GPR peptide R23F.”
(§2) Protein Interaction Assays—The GPR domain of AGS3 (Pro^463-Ser^650) containing the four GPR motifs was generated as a glutathione S-transferase fusion protein by polymerase chain reaction using the full-length cDNA of AGS3 as a template. […] The interaction of GST-AGS3-GPR and HIS-tagged AGS3-GPR with G-proteins was assessed by protein interaction experiments using purified G-protein as described previously (33). […]

[2] = target: T4, Giα2 binding to GST-AGS3-GPR (Homo sapiens, UniProt P04899); experiment: Protein interaction assay: Giα2 binding to AGS3-GPR with GPR peptides; conditions: 10 μM GDP; read-out: IC50 for blocking the binding of Giα2 to GST-AGS3-GPR
T4 construct: made in house; host or cells: Sf9 insect cells (Giα2)
Protocol: as §1, with “antisera.” for “antisera. The blot in the upper panel of A was stripped and reprobed with AGS3 antisera to provide internal controls for protein loading. B, Giα2 (75 nM) was incubated with 300 nM AGS3-GPR or GST in the presence and absence of 100 μM GPR consensus peptide, GPR peptide Q15A, or GPR peptide R23F.”
as §2

Gtα = Gtα (Homo sapiens, UniProt P11488); experiment: Competition with Gβγ subunits for binding to Gtα
Gtα, sequence (P11488 whole entry): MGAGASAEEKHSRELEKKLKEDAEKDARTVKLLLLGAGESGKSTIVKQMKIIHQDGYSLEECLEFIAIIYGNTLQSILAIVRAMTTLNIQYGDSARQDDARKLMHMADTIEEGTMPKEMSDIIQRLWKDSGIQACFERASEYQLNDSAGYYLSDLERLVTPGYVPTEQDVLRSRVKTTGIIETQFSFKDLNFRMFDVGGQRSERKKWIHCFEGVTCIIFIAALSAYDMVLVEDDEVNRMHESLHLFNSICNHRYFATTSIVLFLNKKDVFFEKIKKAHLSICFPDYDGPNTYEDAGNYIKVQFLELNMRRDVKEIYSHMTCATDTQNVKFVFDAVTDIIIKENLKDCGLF

T1 sequence (P63096 whole entry): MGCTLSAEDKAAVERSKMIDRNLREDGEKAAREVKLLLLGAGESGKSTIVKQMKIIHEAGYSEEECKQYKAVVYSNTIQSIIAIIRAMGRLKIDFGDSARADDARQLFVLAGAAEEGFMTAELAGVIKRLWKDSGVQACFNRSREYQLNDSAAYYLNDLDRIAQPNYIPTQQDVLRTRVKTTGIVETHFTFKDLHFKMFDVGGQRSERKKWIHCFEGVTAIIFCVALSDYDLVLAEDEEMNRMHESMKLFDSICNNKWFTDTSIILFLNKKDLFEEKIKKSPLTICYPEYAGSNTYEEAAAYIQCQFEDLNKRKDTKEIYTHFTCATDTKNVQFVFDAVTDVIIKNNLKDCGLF
T2 sequence (P04899 whole entry): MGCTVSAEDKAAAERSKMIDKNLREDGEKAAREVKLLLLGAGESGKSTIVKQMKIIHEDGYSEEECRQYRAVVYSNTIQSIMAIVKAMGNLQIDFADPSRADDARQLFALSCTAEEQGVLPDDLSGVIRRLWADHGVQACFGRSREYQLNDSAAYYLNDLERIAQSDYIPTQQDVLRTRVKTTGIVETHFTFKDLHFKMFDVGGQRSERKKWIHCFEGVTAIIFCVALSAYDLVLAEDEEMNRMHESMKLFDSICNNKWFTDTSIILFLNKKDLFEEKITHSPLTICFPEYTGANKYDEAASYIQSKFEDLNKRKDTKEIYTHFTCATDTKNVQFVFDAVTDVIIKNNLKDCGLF
T4 sequence (P04899 2-355 limits assumed): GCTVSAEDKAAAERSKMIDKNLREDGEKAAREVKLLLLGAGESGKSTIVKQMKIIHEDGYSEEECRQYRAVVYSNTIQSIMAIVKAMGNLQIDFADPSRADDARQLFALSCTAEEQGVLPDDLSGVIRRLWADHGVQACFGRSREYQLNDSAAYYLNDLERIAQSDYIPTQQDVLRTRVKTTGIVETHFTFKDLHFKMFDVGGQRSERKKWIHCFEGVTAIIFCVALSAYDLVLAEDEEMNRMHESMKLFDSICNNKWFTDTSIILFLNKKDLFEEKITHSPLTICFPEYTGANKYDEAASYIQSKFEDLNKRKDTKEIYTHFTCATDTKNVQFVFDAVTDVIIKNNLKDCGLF
T3 sequence (P63096 2-354 limits assumed): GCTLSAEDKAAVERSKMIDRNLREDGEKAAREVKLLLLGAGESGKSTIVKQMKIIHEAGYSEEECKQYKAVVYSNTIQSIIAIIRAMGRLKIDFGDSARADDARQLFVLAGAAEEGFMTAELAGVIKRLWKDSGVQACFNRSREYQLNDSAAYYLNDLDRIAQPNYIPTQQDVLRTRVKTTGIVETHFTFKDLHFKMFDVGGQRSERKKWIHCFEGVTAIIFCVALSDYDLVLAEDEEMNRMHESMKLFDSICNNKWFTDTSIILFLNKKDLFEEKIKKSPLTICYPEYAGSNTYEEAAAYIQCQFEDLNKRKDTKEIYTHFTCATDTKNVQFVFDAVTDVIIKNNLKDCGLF

IC50 (Giα1; G-protein 100 nM, 30 min, 24° C., read-out: IC50 for inhibition of GTPγS binding to Giα1): ~200 nM
IC50 (Giα2): ~200 nM
IC50 [1]: ~200 nM
IC50 [2]: ~200 nM
Molecule: TMGEEDFFDLLAKSQSKRMDDQRVDLAG-NH2 [GPR consensus peptide]

competition with Gβγ subunits for binding to Gtα (Gtα): effectively competed
GTPγS binding to Giα1 (AGS3-GPR protein) (Giα1): inhibited
B1: AGS3-GPR: GPR domain of AGS3 (Pro463-Ser650) containing the four GPR motifs, GST or His-tagged (protein)
chain: PREGSHSPLDSADVRVQVPRTGIPRAPSSDEECFFDLLSKFQSSRMDDQRCPLEEGQAGAAEATAAPTLEERAAQPSVTASPQTEEFFDLIASSQSRRLDDQRASVGSLPGLRITLNNVGHLRGDGDPQEPGDEFFNMLIKYQSSRIDDQRCPPPDVLPRGPTMPDEDFFSLIQRVQAKRMDEQRVDL
modifications: left off: a dimerising Fc or GST
notes: GPR domain of AGS3 (Pro463-Ser650) containing the four GPR motifs, GST or His-tagged

— patent US20030054411A1, “GPR motifs and uses thereof” (priority 2001, published 2003)
